From patent US20160108049A1 (TAKEDA Gmbh, priority 2011, published 2016)

What was measured:
[1] = target: T1, PDE4B1 (Homo sapiens, UniProt Q07343); assay: Inhibition of PDE4 activity (PDE4B1, SPA assay); type: biochemical; conditions: recombinant PDE4B1, 0.5 μM cAMP; read-out: PDE4B1 Inhibitory values measured as -logIC50 (converted)
T1 construct: made in house; host or cells: SF21 insect cells (baculovirus; virus made in SF9 cells, pCR-Bac vector)
In short: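 Read-out is SPA yttrium silicate bead scintillation after IBMX-containing beads stop the reaction. Insect-cell (SF21) lysate enzyme hydrolysed 0.5 μM [3H]cAMP at pH 7.4 with 5 mM Mg2+ for 15 min after a 5 min 37 °C preincubation; IC50 fitted by non-linear regression.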

[2] = target: T2, human PDE5 (Homo sapiens, UniProt O76074); assay: Inhibition of PDE5 activity (platelet lysate, SPA assay); type: biochemical; conditions: 0.5 μM cGMP, read-out: PDE5 Inhibitory values measured as -logIC50 (converted)
T2 construct: from tissue; host or cells: human platelets from fresh donor blood (platelet lysate)
In short: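 SPA readout of [3H]cGMP hydrolysis (0.5 μM, 15 min, 37 °C after 5 min preincubation), stopped with yttrium silicate beads containing IBMX. Enzyme was lysate from human platelets, used at 10–20% substrate turnover, with PDE3 (motapizone 1 μM) and PDE2 (10 nM) blockers present. IC50 values fitted non-linearly from concentration-effect curves.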

T1 sequence (Q07343 whole entry): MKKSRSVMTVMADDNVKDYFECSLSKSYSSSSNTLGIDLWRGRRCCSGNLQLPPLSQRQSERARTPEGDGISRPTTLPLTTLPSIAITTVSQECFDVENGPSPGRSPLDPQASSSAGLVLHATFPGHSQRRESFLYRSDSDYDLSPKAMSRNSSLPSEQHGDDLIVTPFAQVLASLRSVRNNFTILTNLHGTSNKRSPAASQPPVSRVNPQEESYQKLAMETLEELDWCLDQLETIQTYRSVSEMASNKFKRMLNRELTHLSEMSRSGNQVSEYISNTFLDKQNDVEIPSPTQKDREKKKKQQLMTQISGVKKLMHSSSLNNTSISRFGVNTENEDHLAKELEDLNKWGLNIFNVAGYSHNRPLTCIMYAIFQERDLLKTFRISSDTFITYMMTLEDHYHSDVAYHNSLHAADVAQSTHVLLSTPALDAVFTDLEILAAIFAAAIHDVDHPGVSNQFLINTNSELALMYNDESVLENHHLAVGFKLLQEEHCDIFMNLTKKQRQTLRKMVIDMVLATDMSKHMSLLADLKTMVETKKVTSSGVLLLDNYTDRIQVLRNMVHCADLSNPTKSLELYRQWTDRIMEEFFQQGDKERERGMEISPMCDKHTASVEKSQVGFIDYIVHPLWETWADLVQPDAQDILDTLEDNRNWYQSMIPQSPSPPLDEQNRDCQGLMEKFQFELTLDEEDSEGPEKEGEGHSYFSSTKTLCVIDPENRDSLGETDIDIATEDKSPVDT

Row | IC50 [1] | IC50 [2] | SMILES
1 | 1 to 10 nM | < 1 nM | COc1ccc(C2=NN(C3CCN(C(=O)[C@H](Cc4cccnc4)NC(=O)c4c[nH]c5c(-c6c(OCC7CC7)ccc7c6OCO7)ncnc45)CC3)C(=O)C(C)(C)C2)c2c1OC(C)(C)C2 [Example 114, 4-[5-(cyclopropylmethoxy)-1,3-benzodioxol-4-yl]-N-[(2S)-1-{4-[3-(7-methoxy-2,2-dimethyl-2,3-dihydro-1-benzofuran-4-yl)-5,5-dimethyl-6-oxo-5,6-dihydropyridazin-1(4H)-yl]piperidin-1-yl}-1-oxo-3-(pyridin-3-yl)propan-2-yl]-5H-pyrrolo[3,2-d]pyrimidine-7-carboxamide]
2 | < 1 nM | 1 to 10 nM | COc1ccc(C2=NN(C3CCN(C(=O)[C@H](C)NC(=O)c4c[nH]c5c(-c6c(OCC7CC7)ccc7c6OCO7)ncnc45)CC3)C(=O)[C@@H]3CCCC[C@H]23)cc1OC [Example 61, 4-[5-(cyclopropylmethoxy)-1,3-benzodioxol-4-yl]-N-[(2S)-1-{4-[(4aS,8aR)-4-(3,4-dimethoxyphenyl)-1-oxo-4a,5,6,7,8,8a-hexahydrophthalazin-2(1H)-yl]piperidin-1-yl}-1-oxopropan-2-yl]-5H-pyrrolo[3,2-d]pyrimidine-7-carboxamide]
3 | 1 to 10 nM | 1 to 10 nM | COc1ccc(C2=NN(C3CCN(C(=O)[C@H](NC(=O)c4c[nH]c5c(-c6c(OCC7CC7)ccc7c6OCO7)ncnc45)C(C)(C)C)CC3)C(=O)[C@@H]3CCCC[C@H]23)cc1OC [Example 121, 4-[5-(cyclopropylmethoxy)-1,3-benzodioxol-4-yl]-N-[(2R)-1-{4-[(4aS,8aR)-4-(3,4-dimethoxyphenyl)-1-oxo-4a,5,6,7,8,8a-hexahydrophthalazin-2(1H)-yl]piperidin-1-yl}-3,3-dimethyl-1-oxobutan-2-yl]-5H-pyrrolo[3,2-d]pyrimidine-7-carboxamide]
4 | < 1 nM | < 1 nM | COc1ccc(C2=NN(C3CCN(C(=O)[C@@H](Cc4cscn4)NC(=O)c4c[nH]c5c(-c6c(OCC7CC7)ccc7c6OCO7)ncnc45)CC3)C(=O)[C@@H]3CCCC[C@H]23)cc1OC [Example 85, 4-[5-(cyclopropylmethoxy)-1,3-benzodioxol-4-yl]-N-[(2R)-1-{4-[(4aS,8aR)-4-(3,4-dimethoxyphenyl)-1-oxo-4a,5,6,7,8,8a-hexahydrophthalazin-2(1H)-yl]piperidin-1-yl}-1-oxo-3-(1,3-thiazol-4-yl)propan-2-yl]-5H-pyrrolo[3,2-d]pyrimidine-7-carboxamide]
